Reference: publication PMC11556721, “A novel esterase regulates Klebsiella pneumoniae hypermucoviscosity and virulence” (PLOS Pathogens, 2024)

How the values were obtained:
[1] = tested on: T1, rKpACE (KpACE, Klebsiella pneumoniae Acetylated CPS Esterase); experiment: acetylesterase assay, Michaelis-Menten fit; type: biochemical; conditions: pH 7.4
T1 construct: signal peptide (1-21) removed; N-terminal 6xHis tag; pET-28a, E. coli BL21(DE3)

[2] = molecular target: recombinant KpACE (Klebsiella pneumoniae Acetylated CPS Esterase) (Klebsiella pneumoniae ATCC43816); experiment: SEC; Superdex 200; rKpACE peak at 14.38 mL (75.6 kDa); predicted monomer 43.1 kDa

Compound: CC(=O)Oc1ccc2c(C)cc(=O)oc2c1 [4-MU-Ac, 4-methylumbelliferyl acetate]
- Km [1]: 160 ± 30 µM

Compound: recombinant KpACE (Klebsiella pneumoniae Acetylated CPS Esterase) (enzyme)
- stoichiometry N [2]: 2
